Values quoted from earlier work as cited in patent publication US12667644B2, “Iodine-infused ultra high molecular weight polyethylene” (Biomet Manufacturing, LLC, priority 2019, dated 2026).

Tested on: microbes

povidone-iodine
minimum concentration required to achieve antimicrobial activity: about 2 ppm
